pIC50: −log10 of the molar value. Read-outs that look alike come from different tables or passages of the source.
Legend:
HIV-1 ADA [1] = experiment: Serial passage of HIV-1 ADA in PBMCs, emergence of T20 resistance (RT assay); type: cell-based
Description: HIV-1 ADA was passaged in PBMCs 21 times in the presence of RAPA, T-20 or RAPA+T20. After every passage, virus content in the culture supernatant was measured using the RT assay.
HIV-1 replication in the presence of T20 leads to the emergence of drug resistant strains in vitro and in vivo, and this resistance is associated with mutations in the aa 36-45 of gp 41. […] To this end, HIV-1 ADA was passaged weekly for 24 weeks in the presence of RAPA, T20 and RAPA/T20 combined.

HIV-1 ADA [2] = experiment: microbe, parasite or virus in culture; conditions: for pIC50: read-out: Dm (dose at 50% inhibition, equivalent to IC50 value)
Description: (§1) Infectivity Assays: The following viruses were used in infection experiments: HIV-1 IIIb, HIV-1 ADA, HIV-1 BaL, HIV-1 JRFL, HIV-1 JRCSF, and HIV-1 SF162. HIV-1 IIIb is a T cell line-adapted lab strain that uses CXCR4 for entry into cells, whereas the rest are isolates that use CCR5. Viruses were obtained from the National Institutes of Health AIDS Research and Reference Reagent Program.
(§2) For infection of PBMCs, fresh donor PBMCs were cultured for 7 days in medium containing IL-2. On day 7, cells were exposed to the virus for 3 h. Nonadsorbed virus was removed by washing cells with PBS three times. Infected cells were cultured in IL-2 medium. Infection of MDMs was carried out as described before (Perno, 1993). Unless otherwise indicated, PBMCs were infected by using an moi of 0.001, and MDM were infected by using an moi of 0.002. Virus growth was monitored in culture supernatants by measuring p24 antigen levels by ELISA (NEN) or by measuring viral RT activity in an RT assay (Willey, 1988).
(§3) Antiviral Activity of RAPA in PBMCs: The antiviral activity of RAPA was assayed in PBMCs that had been cultured in the presence of RAPA for 7 days before infection. Cells were infected with the X4 HIV-1 IIIb and the R5 HIV-1 ADA strains. Infected cells were cultured in the presence of RAPA (same concentration as during pretreatment) for 7 additional days, during which time virus replication and cell viability were measured.
To test this hypothesis, donor PBMCs were cultured in IL-2 medium in the absence or presence of RAPA (1, 10, and 100 nM). […] Infected cells were cultured in the presence of RAPA (same concentration as during pretreatment) plus 0.1 nM TAK-779. Virus production was determined 7 days after infection.
Donor PBMCs were cultured in IL-2 medium in the absence or presence of HU (0 and 10 uM). After 7 days, cells were infected with HIV-1 ADA. Infected cells were cultured in the presence of HU (same concentration as during pretreatment) plus different concentration of TAK-779 ranging from 0, 2 and 20 nM). Virus production was determined 7 days after infection.
In order to determine the nature and degree of interaction between RAPA and T20, infectivity assays were performed in the presence of the drugs, alone and in combination. The infectivity assays were performed using PBMCs from healthy donors. PBMCs were cultured for 7 days in the presence of IL-2 (100 U/ml) in the presence or absence of RAPA. On day 7, cells were infected by exposure to the R5 strain HIV-1 ADA (m.o.i of 0.001) for 2 h. Non-adsorbed virus was removed by 3 washes with PBS. Infected cells were then plated in RPMI-10 supplemented with IL-2 (100 U/ml) in the presence of different concentrations of RAPA and T20. Each drug concentration was tested in triplicate. Medium was changed in day 3 after infection and drugs were added at the same concentration as before. On day 7 after infection, virus production was measured in the culture supernatants using a commercial p24 antigen ELISA (NCI, Frederick). Cell viability was determined using the MTT assay (Roche).
The antiviral data was then analyzed for synergy using two different methodologies, the Median Effect principle and Three Dimensional modeling.

CCR5 [3] = experiment: CCR5 cell-surface expression on maturing monocytes (CD14-gated flow cytometry); type: cell-based, human; conditions: monocytes cultured 5 days, three donors
[4] = Tolerability of Rapamycin in HIV infected volunteers; type: in vivo, human; conditions: 2 mg/day after 6 mg loading dose, 28 days
Description: To assess the expression activity of CCR5 and its effects on levels of CCR5 receptors in vivo, an open-labeled, non-randomized proof of concept trial was performed in which 8 volunteers with established HIV infection were given 2 mg/day of Rapamycin, following a 6 mg loading dose, for 28 days. Peripheral blood for determining expression levels of CCR5 was obtained at the screening visit, days 7, 14 and 28 of the Rapamycin dosing, and at day 42 (which was two weeks following the last dose of Rapamycin).

CCR5 [5] = experiment: CCR5 surface expression on CD4 and CD8 T lymphocytes in IL-2 cultured PBMCs (flow cytometry, mAb 182); type: cell-based, human; conditions: days 7 and 10, five donors tested
Description: CCR5 surface expression was measured on PBMCs cultured in the presence of IL-2 for 7-10 days.

R5 strains of HIV-1 = experiment: Replication of a panel of five R5 strains of HIV-1 in PBMCs; type: cell-based; conditions: Human immunodeficiency virus 1, PBMC
Description: as §1, §2
RAPA at 0.01 nM inhibited R5 HIV-1 by 10-64% depending on the strains, whereas 0.1 nM RAPA inhibited virus replication by 15-85%. At 1 nM RAPA, all R5 viruses were inhibited by ≧90%.

HIV-1 SF 162 = HIV-1 SF 162 replication in monocyte-derived macrophages; type: cell-based; conditions: Human immunodeficiency virus 1, Macrophage; RAPA at 0.01 nM, additional experiment; read-out: inhibition of HIV-1 SF 162 in MDMs
Description: as §2
(§4) To this end, donor monocytes were cultured for 5 days in the presence of RAPA. On day 5, cells were infected with HIV-1 ADA. Infected cells were cultured in the presence of RAPA for an additional 14 days. Virus production was measured on the culture supernatants on days 7, 10, and 14 after infection. Cell viability was measured by the MTT assay at the end of the experiment.

HIV-1 ADA [6] = experiment: HIV-1 ADA replication in monocyte-derived macrophages (RT assay); type: cell-based
Description: as §2, §4
In the above-described experiment, monocytes had been pretreated with RAPA during the 5-day differentiation period. To control for the possible interference of RAPA with the process of monocyte differentiation, a new infection experiment in which RAPA was not present during the 5-day monocyte differentiation period was designed. To this end, fresh monocytes were cultured for 5 days in the absence of RAPA. On day 5, cells were infected with HIV-1 ADA and then exposed to RAPA.

MIP-1β = experiment: Extracellular MIP-1β level in PBMC culture supernatants (ELISA); type: cell-based, human; conditions: for increase of MIP-1β protein versus untreated control: day 10
Description: Levels of the β-chemokines MIP-1α, MIP-1β, and RANTES were measured in culture supernatants by using ELISA kits (R & D Systems).
RAPA Increases Extracellular Levels of MIP-1α and MIP-1β in PBMC Cultures: Because lymphocytes and monocytes cultured in the presence of RAPA presented reduced CCR5 RNA and protein levels, the levels of the CCR5 ligands MIP-1α, MIP-1β, and RANTES were measured in supernatants of RAPA-treated PBMC cultures. […] On day 10, percentage of cells expressing CCR5 and supernatant chemokine content were determined for each donor. […] Among the different donors, RAPA-treated cultures contained 6-39-fold higher levels of MIP-1α than untreated cultures. Similarly, MIP-1β levels were increased 17-47-fold in the presence of RAPA as compared with untreated controls. […] Chemokine results obtained in two of the donors, showing disparity of RANTES levels in the presence of RAPA, are depicted in FIG. 3A.
The above results were confirmed by evaluating the effect of RAPA on the secretion of MIP-1β, a chemokine that uses CCR5 as its only receptor, in cultures of PBMCs derived from a donor homozygous for the Δ32 mutation in the CCR5 gene. In this experimental setting, in which MIP-1β cannot be endocytosed by CCR5, the effect of RAPA on MIP-1β protein levels provided information regarding the mechanism by which RAPA increases β-chemokine levels. To this end, stimulated PBMCs from two normal donors and from a CCR5-null donor were cultured in the presence of RAPA as in previous experiments. MIP-1β levels in supernatants were evaluated on day 10. Representative results obtained in one of the normal donors are shown in FIG. 3B next to the results obtained on the CCR5-null donor.

HIV-1 IIIb = HIV-1 IIIb replication in PBMCs (p24 assay); type: cell-based; conditions: Human immunodeficiency virus 1, IIIB, PBMC, 7 days pretreatment, day 7 after infection
Description: as §1, §2
as §3, with “Cells were infected with the X4 HIV-1 IIIb and the R5 HIV-1 ADA strains.” left out

MIP-1α = experiment: Extracellular MIP-1α level in PBMC culture supernatants (ELISA); type: cell-based, human; conditions: day 10, four donors
PBMCs = PBMCs with IL-2, day 7
MDMs = experiment: Cell viability of infected MDMs (MTT assay); type: cell-based, human; conditions: end of experiment (day 14 after infection)
Description: as §4

CCR5 mRNA = experiment: Semiquantitative RT-PCR of CCR5 transcripts in PBMC cultures; type: cell-based, human; conditions: PBMCs cultured with IL-2 and drug for 7 days
Description: PCR Methodologies: Amplification of CCR5 and β-chemokine RNA sequences was performed by RT-PCR as described (Baba, 1996; Levine, 1996).

[7] = Human immunodeficiency virus 1, PBMC, 168 h, read-out: Fa (fractional inhibition)

enfuvirtide
antiviral activity on passaged virus (HIV-1 ADA [1]; T20 100 nM, from the 11th passage onwards): did not exert antiviral activity | sensitivity of passaged virus to T20 (HIV-1 ADA [1]; T20 alone, 10th passage): reduced sensitivity to T20 | inhibition of virus replication (HIV-1 ADA [1]; T20 alone, initial 9 passages): > 75% | Fa (fractional inhibition) (HIV-1 ADA [2]; T-20 1.5 nM alone, p24 day 7): 0.210 | Fa (fractional inhibition) (HIV-1 ADA [2]; T-20 3.12 nM alone, p24 day 7): 0.260 | Fa (fractional inhibition) (HIV-1 ADA [2]; T-20 6.25 nM alone, p24 day 7): 0.400 | Fa (fractional inhibition) (HIV-1 ADA [2]; T-20 12.5 nM alone, p24 day 7): 0.600 | Fa (fractional inhibition) (HIV-1 ADA [2]; T-20 25 nM alone, p24 day 7): 0.810 | Fa (fractional inhibition) (HIV-1 ADA [2]; T-20 50 nM alone, p24 day 7): 0.980 | pIC50 (HIV-1 ADA [2]; drug used alone, p24 day 7): 8.21

CO[C@H]1C[C@@H]2CC[C@@H](C)[C@@](O)(O2)C(=O)C(=O)N2CCCC[C@H]2C(=O)O[C@H]([C@H](C)C[C@@H]2CC[C@@H](O)[C@H](OC)C2)CC(=O)[C@H](C)/C=C(\C)[C@@H](O)[C@@H](OC)C(=O)[C@H](C)C[C@H](C)/C=C/C=C/C=C/1C [RAPA, rapamycin]
concentrations giving consistent down-regulation of CCR5 surface expression on monocytes (CCR5 [3]): ≥ 10 pM | tolerability [4]: well-tolerated | concentrations that down-regulated CCR5 surface expression on CD4 lymphocytes (CCR5 [5]): ≥ 0.001 µM | inhibition at 10 pM (R5 strains of HIV-1; read-out: inhibition of R5 HIV-1, depending on the strains): 10 to 64% | inhibition at 0.0001 µM (R5 strains of HIV-1; read-out: inhibition of R5 HIV-1 replication): 15 to 85% | inhibition at 0.001 µM (R5 strains of HIV-1; read-out: inhibition of all R5 viruses): ≥ 90% | inhibition at 10 pM (HIV-1 SF 162): 45% | inhibition of virus replication in already differentiated macrophages (HIV-1 ADA [6]; 1 nM RAPA added after infection on day 5, day 14 after infection, one value per donor): ~80% | inhibition at 0.001 µM (HIV-1 ADA [6]; Human immunodeficiency virus 1, Macrophage, 1 nM RAPA added after infection on day 5, day 14 after infection, one value per donor, read-out: inhibition of virus replication in already differentiated macrophages): ~60% | inhibition at 10 pM (HIV-1 ADA [6]; Human immunodeficiency virus 1, Macrophage, RAPA at 0.01 nM, additional experiment, read-out: inhibition of HIV-1 ADA in MDMs): 64% | inhibition of virus production in MDMs (HIV-1 ADA [6]; RAPA 0.1-100 nM, present during 5-day differentiation, day 14 after infection): 70-95% | increase of MIP-1β protein versus untreated control (MIP-1β; CCR5-null donor (Δ32 homozygous)): 1.2 fold | MIP-1β level versus untreated controls (MIP-1β; day 10, four donors): 17-47 fold | increase of MIP-1β protein versus untreated control (MIP-1β; normal donor): 9.3 fold | inhibition at 0.01 µM (HIV-1 IIIb; 10 nM RAPA): 13.5% | inhibition at 0.1 µM (HIV-1 IIIb; 100 nM RAPA): 32% | MIP-1α level versus untreated cultures (MIP-1α): 6-39 fold | pIC50 (HIV-1 ADA [2]; Human immunodeficiency virus 1, PBMC, 168 h): 9.51 | inhibition at 30 pM (HIV-1 ADA [2]; [7]): 1.7% | inhibition at 60 pM (HIV-1 ADA [2]; [7]): 10.2% | inhibition at 0.00012 µM (HIV-1 ADA [2]; [7]): 11.4% | inhibition at 0.00025 µM (HIV-1 ADA [2]; [7]): 54% | inhibition at 0.0005 µM (HIV-1 ADA [2]; [7]): 62% | inhibition at 0.001 µM (HIV-1 ADA [2]; [7]): 88% | drug concentration at which drug toxicity was observed (PBMCs): above 10^3 nM | concentrations at which cell viability was reduced (MDMs): ≥ 10 nM

NC(=O)NO [HU, hydroxyurea]
concentrations that down-regulated CCR5 surface expression on CD4 lymphocytes (CCR5 [5]): ≥ 50 µM | CCR5 transcripts (semiquantitative RT-PCR) (CCR5 mRNA): decreased amounts of CCR5 transcripts | reduction of p24 levels (HIV-1 ADA [2]; 10 uM of HU alone, day 7 after infection): approximately 60%
